Measurements taken from patent publication US20230265151A1, “GIP/GLP1 CO-AGONIST COMPOUNDS” (priority 2020, published 2023).
Where two headings read alike, the source gives them in different places.

Tests used:
[1] = target: T1, human GLP-1 receptor (hGLP-1R) (Homo sapiens, UniProt P43220); experiment: [125I]-GLP-1 binding, SPA with membranes of HEK293 cells expressing hGLP-1R
T1 construct: expressed in transfected cells; crude membranes
Method: Two methods are used for the preparation of crude cell membranes.
Method 1: Frozen cell pellets are lysed on ice in hypotonic buffer containing 50 mM Tris HCl, pH 7.5, and Roche Complete™ Protease Inhibitors with EDTA. […] The homogenate is centrifuged at 4° C. at 1100 × g for 10 minutes. The supernatant is collected and stored on ice while the pellets are resuspended in homogenization buffer and rehomogenized as described above. The homogenate is centrifuged at 1100 × g for 10 minutes. The second supernatant is combined with the first supernatant and centrifuged at 35000 × g for 1 hour at 4° C. The resulting membrane pellet is resuspended in homogenization buffer containing protease inhibitors at approximately 1 to 3 mg/mL, quick frozen in liquid nitrogen and stored as aliquots in a -80° C. freezer until use.
The homogenate is centrifuged at 4° C. at 1800 × g for 15 minutes. The supernatant is collected and stored on ice while the pellets are resuspended in homogenization buffer (without DNAse I) and rehomogenized as described above. The homogenate is centrifuged at 1800 × g for 15 minutes. The second supernatant is combined with the first supernatant and centrifuged an additional time at 1800 × g for 15 minutes. The overall supernatant is then centrifuged at 25000 × g for 30 minutes at 4° C. The resulting membrane pellet is resuspended in homogenization buffer (without DNAse I) containing protease inhibitors at approximately 1 to 3 mg/mL and stored as aliquots in a -80° C. freezer until use.
The human GLP-1 receptor binding assay is performed using an SPA format with WGA beads. The binding buffer contains 25 mM HEPES, pH 7.4, 2.5 mM CaCl2, 1 mM MgCl2, 0.1% (w/v) bacitracin, 0.003% (w/v) TWEEN®-20, and Roche Complete™ Protease Inhibitors without EDTA.
Raw CPM data for concentration curves of peptides, Gcg, GLP-1, or GIP are converted to percent inhibition by subtracting nonspecific binding (binding in the presence of excess unlabeled Gcg, GLP-1, or GIP, respectively) from the individual CPM values and dividing by the total binding signal, also corrected by subtracting nonspecific binding. Data are analyzed using four-parameter (curve maximum, curve minimum, IC50, Hill slope) nonlinear regression routines (Genedata Screener, version 12.0.4, Genedata AG, Basal, Switzerland). […] Values for Ki are reported as the geometric mean, with error expressed as the standard error of the mean (SEM) and n is equal to the number of independent replicates (determined in assays performed on different days). Geometric Means are calculated as follows: […]
The Ki Ratio (Ki for native control peptide/Ki for test compound) at each receptor and each species is calculated. The Ki Ratio is a rapid indication of the apparent affinity of a peptide compared to the native control peptide.
n=⅟x means that only one value out of the total number of replicates (x) is used to express the mean. SEM is only calculated when n=2 or greater non-qualified results exist. Means are expressed as GeoMetric means with the standard error of the mean (SEM) and the number of replicates (n) indicated in parenthesis.

hGIPR = target: T2, hGIPR (Homo sapiens, UniProt P48546); experiment: Functional cAMP formation (HTRF) in HEK-293 clonal cells expressing hGIPR, 0.1% bovine casein, without or with 1.0% human serum albumin; type: cell-based; conditions: for EC50: geometric mean
T2 construct: expressed in transfected cells
T2 sequence (P48546 22-466): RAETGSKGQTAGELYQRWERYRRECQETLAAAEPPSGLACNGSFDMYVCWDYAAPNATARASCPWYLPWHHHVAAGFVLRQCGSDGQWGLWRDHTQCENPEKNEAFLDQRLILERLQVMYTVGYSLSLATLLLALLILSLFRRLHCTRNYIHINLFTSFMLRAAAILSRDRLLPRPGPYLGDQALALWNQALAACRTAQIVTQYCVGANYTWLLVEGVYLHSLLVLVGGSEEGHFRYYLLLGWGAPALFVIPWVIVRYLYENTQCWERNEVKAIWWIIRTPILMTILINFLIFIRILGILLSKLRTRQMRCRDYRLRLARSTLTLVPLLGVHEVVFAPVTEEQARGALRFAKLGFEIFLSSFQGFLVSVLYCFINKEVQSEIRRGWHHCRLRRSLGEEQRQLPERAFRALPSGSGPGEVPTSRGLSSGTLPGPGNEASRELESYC
Method in brief: (§1)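 Cells were stimulated with peptide for 30 min at 37° C, then intracellular cAMP was measured by competitive HTRF (665/620 nm ratio) and converted to nM using a cAMP standard curve. Relative EC50 and Emax came from four-parameter logistic fits of percent maximal response against peptide concentration.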

hGCGR = target: T3, hGCGR (Homo sapiens, UniProt P47871); experiment: Functional cAMP formation (HTRF) in HEK-293 clonal cells expressing hGCGR, 0.1% bovine casein, without or with 1.0% human serum albumin; type: cell-based
T3 construct: expressed in transfected cells
Method in brief: as §1

hGLP-1R = hGLP-1R (Homo sapiens, UniProt P43220); experiment: Functional cAMP formation (HTRF) in HEK-293 clonal cells expressing hGLP-1R, 0.1% bovine casein, without or with 1.0% human serum albumin; type: cell-based; design: expressed in transfected cells; conditions: for EC50: 37° C.
Method in brief: as §1

[2] = human GLP-1R, geometric mean (SEM, n), read-out: Binding Affinity Ki, nM (SEM, n) hGLP-1R

T1 sequence (P43220 24-463): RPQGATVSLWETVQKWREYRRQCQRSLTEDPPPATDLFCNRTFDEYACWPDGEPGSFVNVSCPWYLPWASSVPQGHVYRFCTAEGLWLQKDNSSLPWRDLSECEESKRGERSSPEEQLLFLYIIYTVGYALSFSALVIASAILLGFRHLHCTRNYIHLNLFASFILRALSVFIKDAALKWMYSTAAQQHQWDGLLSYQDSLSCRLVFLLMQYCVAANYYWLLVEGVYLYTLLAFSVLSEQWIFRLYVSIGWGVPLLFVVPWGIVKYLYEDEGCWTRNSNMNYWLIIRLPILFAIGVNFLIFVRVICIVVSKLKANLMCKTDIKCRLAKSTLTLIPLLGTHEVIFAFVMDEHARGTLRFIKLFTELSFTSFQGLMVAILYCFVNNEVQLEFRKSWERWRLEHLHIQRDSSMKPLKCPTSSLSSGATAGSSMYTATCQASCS
Sequence of hGLP-1R (P43220 24-463): as above
T3 sequence (P47871 26-477): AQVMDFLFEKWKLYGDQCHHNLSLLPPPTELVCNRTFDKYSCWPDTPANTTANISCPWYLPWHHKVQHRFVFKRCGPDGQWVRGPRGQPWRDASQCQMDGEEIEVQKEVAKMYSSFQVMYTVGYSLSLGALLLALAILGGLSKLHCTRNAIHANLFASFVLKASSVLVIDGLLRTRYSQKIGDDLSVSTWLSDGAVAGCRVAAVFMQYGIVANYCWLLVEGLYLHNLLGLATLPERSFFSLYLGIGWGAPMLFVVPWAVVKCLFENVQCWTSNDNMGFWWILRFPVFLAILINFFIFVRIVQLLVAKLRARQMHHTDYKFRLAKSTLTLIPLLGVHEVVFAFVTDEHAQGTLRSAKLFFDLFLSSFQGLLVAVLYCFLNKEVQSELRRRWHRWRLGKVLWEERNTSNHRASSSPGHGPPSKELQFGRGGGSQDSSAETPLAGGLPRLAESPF

With `CCCCCCCCCCCC(=O)N[C@@H](CCC(=O)NCCOCCOCC(=O)NCCCC[C@H](NC(=O)CNC(=O)CNC(=O)[C@H](CCC(=O)O)NC(=O)[C@@H](NC(=O)[C@H](CC(C)C)NC(=O)[C@](C)(Cc1ccc(O)cc1)NC(=O)[C@@H](CCC(=O)O)NC(=O)[C@@H](NC(=O)[C@H](Cc1ccccc1)NC(=O)[C@H](CCC(=O)O)NC(=O)C(C)(C)NC(=O)[C@H](CCC(N)=O)NC(=O)[C@H](C)NC(=O)[C@H](CCCCNC(=O)COCCOCCNC(=O)CC[C@H](NC(=O)CCCCCCCCCCC)C(=O)O)NC(=O)[C@H](CCCN)NC(=O)[C@H](CC(=O)O)NC(=O)[C@H](CC(C)C)NC(=O)[C@](C)(CC(C)C)NC(=O)[C@@H](NC(=O)[C@H](CO)NC(=O)[C@H](Cc1ccncc1)NC(=O)[C@H](CC(=O)O)NC(=O)[C@H](CO)NC(=O)[C@@H](NC(=O)[C@](C)(Cc1ccccc1F)NC(=O)[C@@H](NC(=O)CNC(=O)[C@H](CCC(=O)O)NC(=O)C(C)(C)NC(=O)[C@@H](N)Cc1ccc(O)cc1)[C@@H](C)O)[C@@H](C)O)[C@@H](C)CC)[C@@H](C)CC)[C@@H](C)CC)C(=O)N[C@@H](CO)C(=O)N[C@@H](CO)C(=O)NCC(=O)N[C@@H](C)C(=O)N1CCC[C@H]1C(=O)N1CCC[C@H]1C(=O)N1CCC[C@H]1C(=O)N[C@@H](CO)C(N)=O)C(=O)O` [Example 14] the Ki [1, 2] was 0.286 nM, the EC50 (hGIPR; 0.1% bovine casein and 1.0% human serum albumin, 37° C., read-out: hGIPR EC50, nM (SEM, n)) was 0.769 nM and the Emax (hGIPR; HEK293, 0.1% bovine casein and 1.0% human serum albumin, 37° C., percent of maximal response to GIP(1-42)NH2, read-out: hGIPR Emax, % ± SEM) was 89.5 ± 1.02%. The Emax (hGIPR; HEK293, percent of maximal response to GIP(1-42)NH2, 37° C., 0.1% bovine casein, arithmetic mean, read-out: hGIPR Emax, % ± SEM) was 95 ± 2.32%, the EC50 (hGCGR; 0.1% bovine casein and 1.0% human serum albumin, 37° C., geometric mean, read-out: hGCGR EC50, nM (SEM, n)) was > 9950 nM and the EC50 (hGCGR; cAMP, incubated at 37° C., 0.1% bovine casein (no human serum albumin), geometric mean, read-out: hGCGR EC50, nM (SEM, n)) was > 9950 nM. The EC50 (hGLP-1R; 0.1% bovine casein and 1.0% human serum albumin, geometric mean, read-out: hGLP-1R EC50, nM (SEM, n)) was 9.19 nM.
In the case of `CCCCCCCCCCCC(=O)N[C@@H](CCC(=O)NCCOCCOCC(=O)NCCOCCOCC(=O)NCCOCCOCC(=O)NCCCC[C@H](NC(=O)[C@H](CCCN)NC(=O)[C@H](CC(=O)O)NC(=O)[C@H](CC(C)C)NC(=O)[C@](C)(CC(C)C)NC(=O)[C@@H](NC(=O)C(C)(C)NC(=O)[C@H](Cc1ccncc1)NC(=O)[C@H](CC(=O)O)NC(=O)[C@H](CO)NC(=O)[C@@H](NC(=O)[C@](C)(Cc1ccccc1F)NC(=O)[C@@H](NC(=O)CNC(=O)[C@H](CCC(=O)O)NC(=O)C(C)(C)NC(=O)[C@@H](N)Cc1ccc(O)cc1)[C@@H](C)O)[C@@H](C)O)[C@@H](C)CC)C(=O)N[C@@H](C)C(=O)N[C@@H](CCC(N)=O)C(=O)NC(C)(C)C(=O)N[C@@H](CCCN)C(=O)N[C@@H](Cc1ccccc1)C(=O)N[C@H](C(=O)N[C@H](CCC(=O)O)C(=O)N[C@@](C)(Cc1ccc(O)cc1)C(=O)N[C@@H](CC(C)C)C(=O)N[C@H](C(=O)N[C@@H](CCCCNC(=O)COCCOCCNC(=O)COCCOCCNC(=O)COCCOCCNC(=O)CC[C@H](NC(=O)CCCCCCCCCCC)C(=O)O)C(=O)NCC(=O)NCC(=O)N1CCC[C@H]1C(=O)N[C@@H](CO)C(=O)N[C@@H](CO)C(=O)NCC(=O)N[C@@H](C)C(=O)N1CCC[C@H]1C(=O)N1CCC[C@H]1C(=O)N1CCC[C@H]1C(=O)N[C@@H](CO)C(N)=O)[C@@H](C)CC)[C@@H](C)CC)C(=O)O` [Example 434], the Ki [1, 2] is reported as 0.15 nM, the Emax (hGIPR; HEK293, cAMP, 37° C., 0.1% bovine casein and 1.0% human serum albumin, percent of maximal response to GIP(1-42)NH2, read-out: hGIPR Emax, % ± SEM) is reported as 97.5% and the Emax (hGIPR; HEK293, cAMP, 37° C., 0.1% bovine casein, percent of maximal response to GIP(1-42)NH2, arithmetic mean, read-out: hGIPR Emax, % ± SEM) is reported as 98.3%. For the same compound, the EC50 (hGIPR; cAMP, 37° C., 0.1% bovine casein (no human serum albumin), read-out: hGIPR EC50, nM (SEM, n)) was 0.00704 nM, the EC50 (hGCGR; cAMP, 37° C., 0.1% bovine casein (no human serum albumin), geometric mean, read-out: hGCGR EC50, nM (SEM, n)) was > 9950 nM and the EC50 (hGCGR; cAMP, 37° C., 0.1% bovine casein and 1.0% human serum albumin, geometric mean (SEM, n), read-out: hGCGR EC50, nM (SEM, n)) was > 9950 nM. For the same compound, the EC50 (hGLP-1R; cAMP, 0.1% bovine casein (no human serum albumin), geometric mean, read-out: hGLP-1R EC50, nM (SEM, n)) was 0.0837 nM and the EC50 (hGLP-1R; cAMP, 0.1% bovine casein and 1.0% human serum albumin, geometric mean (SEM, n), read-out: hGLP-1R EC50, nM (SEM, n)) was 1.73 nM.
In the case of `CC[C@H](C)[C@H](NC(=O)[C@H](CC(C)C)NC(=O)[C@](C)(Cc1ccc(O)cc1)NC(=O)[C@H](CCCCNC(=O)COCCOCCNC(=O)CC[C@H](NC(=O)CC[C@H](NC(=O)CC[C@H](NC(=O)CCCCCCCCCOc1ccc(C(=O)O)cc1)C(=O)O)C(=O)O)C(=O)O)NC(=O)[C@@H](NC(=O)[C@H](Cc1ccccc1)NC(=O)[C@H](CCCN)NC(=O)C(C)(C)NC(=O)[C@H](CCC(N)=O)NC(=O)[C@H](C)NC(=O)[C@H](CCC(N)=O)NC(=O)[C@H](CCCN)NC(=O)[C@H](CC(=O)O)NC(=O)[C@H](CC(C)C)NC(=O)[C@](C)(CC(C)C)NC(=O)[C@@H](NC(=O)C(C)(C)NC(=O)[C@H](Cc1ccncc1)NC(=O)[C@H](CC(=O)O)NC(=O)[C@H](CO)NC(=O)[C@@H](NC(=O)[C@](C)(Cc1ccccc1F)NC(=O)[C@@H](NC(=O)CNC(=O)[C@H](CCC(=O)O)NC(=O)C(C)(C)NC(=O)[C@@H](N)Cc1ccc(O)cc1)[C@@H](C)O)[C@@H](C)O)[C@@H](C)CC)[C@@H](C)CC)C(=O)N[C@@H](CCCCNC(=O)COCCOCCNC(=O)CC[C@H](NC(=O)CC[C@H](NC(=O)CC[C@H](NC(=O)CCCCCCCCCOc1ccc(C(=O)O)cc1)C(=O)O)C(=O)O)C(=O)O)C(=O)NCC(=O)NCC(=O)N1CCC[C@H]1C(=O)N[C@@H](CO)C(=O)N[C@@H](CO)C(=O)NCC(=O)N[C@@H](C)C(=O)N1CCC[C@H]1C(=O)N1CCC[C@H]1C(=O)N1CCC[C@H]1C(=O)N[C@@H](CO)C(N)=O` [Example 487], the Ki [1] is reported as 0.217 nM, the Emax (hGIPR; HEK293, read-out: hGIPR Emax, % ± SEM, cAMP, 37° C., 0.1% bovine casein and 1.0% human serum albumin, percent of maximal response to GIP(1-42)NH2) is reported as 89.1% and the EC50 (hGIPR; hGIPR EC50, nM (SEM, n), cAMP, 37° C., 0.1% bovine casein (no human serum albumin)) is reported as 0.0161 nM. For the same compound, the EC50 (hGCGR; hGCGR EC50, nM (SEM, n), cAMP, 37° C., 0.1% bovine casein (no human serum albumin), geometric mean) was > 9950 nM, the EC50 (hGCGR; hGCGR EC50, nM (SEM, n), cAMP, 37° C., 0.1% bovine casein and 1.0% human serum albumin, geometric mean (SEM, n)) was > 9950 nM and the Emax (hGLP-1R; HEK293, read-out: hGLP-1R Emax, % ± SEM, cAMP, 37° C., 0.1% bovine casein, percent of maximal response to GLP-1(7-36)NH2, arithmetic mean) was 116%. The EC50 (hGLP-1R; hGLP-1R EC50, nM (SEM, n), cAMP, 0.1% bovine casein (no human serum albumin), geometric mean) was 0.199 nM.
